Assay results from ChEMBL document CHEMBL5724806, “Unraveling interindividual differences and functional consequences of gut microbial metabolism of immunosuppressants” (2024).

Tests used:
Format in all cases: ADME
[1] = (§1) The drug is tested on the gut metagenome community of T-03 with ENA study accession number: PRJEB31790 for biotransformation under microaerobic condition. The drug concentrations were measured over 7 timepoints collected between 0 and 12 hours of incubation by liquid-chromatography-coupled mass spectrometry (LC–MS); set-up: dose 5 uM, timepoint 0, 0.75, 1.5, 3, 6, 9, 12 hours; conditions: 5 µM
[2] = The drug is tested on Faecalibacterium prausnitzii strain: DSM17677 for biotransformation under anaerobic condition. The drug concentrations were measured over 6 timepoints collected between 0 and 12 hours of incubation by liquid-chromatography-coupled mass spectrometry (LC–MS); set-up: dose 5 uM, timepoint 0, 1.5, 3, 6, 9, 12 hours; conditions: faecalibacterium duncaniae, 5 µM
[3] = as §1, with “A-10” for “T-03”, “anaerobic” for “microaerobic”; set-up: dose 5 uM, timepoint 0, 0.75, 1.5, 3, 6, 9, 12 hours; conditions: 5 µM
[4] = The drug is tested on Gemella morbillorum strain: DSM20572 for biotransformation under microaerobic condition. The drug concentrations were measured over 6 timepoints collected between 0 and 12 hours of incubation by liquid-chromatography-coupled mass spectrometry (LC–MS); set-up: dose 5 uM, timepoint 0, 1.5, 3, 6, 9, 12 hours; conditions: 5 µM
[5] = The drug is tested on Enterococcus faecalis strain: ATCC29212 for biotransformation under microaerobic condition. The drug concentrations were measured over 6 timepoints collected between 0 and 12 hours of incubation by liquid-chromatography-coupled mass spectrometry (LC–MS); set-up: dose 5 uM, timepoint 0, 1.5, 3, 6, 9, 12 hours; conditions: 5 µM
[6] = as §1, with “A-05” for “T-03”, “anaerobic” for “microaerobic”; set-up: dose 5 uM, timepoint 0, 0.75, 1.5, 3, 6, 9, 12 hours; conditions: 5 µM
[7] = The drug is tested on Parabacteroides merdae strain: DSM19495 for biotransformation under anaerobic condition. The drug concentrations were measured over 6 timepoints collected between 0 and 12 hours of incubation by liquid-chromatography-coupled mass spectrometry (LC–MS); set-up: dose 5 uM, timepoint 0, 1.5, 3, 6, 9, 12 hours; conditions: 5 µM
[8] = The drug is tested on Prevotella copri strain: DSM18205 for biotransformation under anaerobic condition. The drug concentrations were measured over 6 timepoints collected between 0 and 12 hours of incubation by liquid-chromatography-coupled mass spectrometry (LC–MS); set-up: dose 5 uM, timepoint 0, 1.5, 3, 6, 9, 12 hours; conditions: segatella copri, 5 µM
[9] = as §1, with “A-09” for “T-03”, “anaerobic” for “microaerobic”; set-up: dose 5 uM, timepoint 0, 0.75, 1.5, 3, 6, 9, 12 hours; conditions: 5 µM
[10] = The drug is tested on Enterococcus faecalis strain: ATCC29212 for biotransformation under anaerobic condition. The drug concentrations were measured over 6 timepoints collected between 0 and 12 hours of incubation by liquid-chromatography-coupled mass spectrometry (LC–MS); set-up: dose 5 uM, timepoint 0, 1.5, 3, 6, 9, 12 hours; conditions: 5 µM
[11] = as §1, with “A-04” for “T-03”; set-up: dose 5 uM, timepoint 0, 0.75, 1.5, 3, 6, 9, 12 hours; conditions: 5 µM
[12] = The drug is tested on Streptococcus anginosus strain: DSM20563 for biotransformation under anaerobic condition. The drug concentrations were measured over 6 timepoints collected between 0 and 12 hours of incubation by liquid-chromatography-coupled mass spectrometry (LC–MS); set-up: dose 5 uM, timepoint 0, 1.5, 3, 6, 9, 12 hours; conditions: 5 µM
[13] = The drug is tested on Parabacteroides distasonis strain: DSM20701 for biotransformation under anaerobic condition. The drug concentrations were measured over 6 timepoints collected between 0 and 12 hours of incubation by liquid-chromatography-coupled mass spectrometry (LC–MS); set-up: dose 5 uM, timepoint 0, 1.5, 3, 6, 9, 12 hours; conditions: 5 µM
[14] = as §1, with “P-04” for “T-03”, “anaerobic” for “microaerobic”; set-up: dose 5 uM, timepoint 0, 0.75, 1.5, 3, 6, 9, 12 hours; conditions: 5 µM
[15] = The drug is tested on Bifidobacterium longum strain: DSM20088 for biotransformation under microaerobic condition. The drug concentrations were measured over 6 timepoints collected between 0 and 12 hours of incubation by liquid-chromatography-coupled mass spectrometry (LC–MS); set-up: dose 5 uM, timepoint 0, 1.5, 3, 6, 9, 12 hours; conditions: 5 µM
[16] = as §1, with “P-01” for “T-03”, “anaerobic” for “microaerobic”; set-up: dose 5 uM, timepoint 0, 0.75, 1.5, 3, 6, 9, 12 hours; conditions: 5 µM
[17] = as §1, with “A-10” for “T-03”; set-up: dose 5 uM, timepoint 0, 0.75, 1.5, 3, 6, 9, 12 hours; conditions: 5 µM
[18] = The drug is tested on Streptococcus sanguinis strain: DSM20567 for biotransformation under microaerobic condition. The drug concentrations were measured over 6 timepoints collected between 0 and 12 hours of incubation by liquid-chromatography-coupled mass spectrometry (LC–MS); set-up: dose 5 uM, timepoint 0, 1.5, 3, 6, 9, 12 hours; conditions: 5 µM
[19] = The drug is tested on Bacteroides thetaiotaomicron strain: DSM2079 for biotransformation under anaerobic condition. The drug concentrations were measured over 6 timepoints collected between 0 and 12 hours of incubation by liquid-chromatography-coupled mass spectrometry (LC–MS); set-up: dose 5 uM, timepoint 0, 1.5, 3, 6, 9, 12 hours; conditions: 5 µM
[20] = The drug is tested on Lactobacillus ruminis strain: ATCC25644 for biotransformation under anaerobic condition. The drug concentrations were measured over 6 timepoints collected between 0 and 12 hours of incubation by liquid-chromatography-coupled mass spectrometry (LC–MS); set-up: dose 5 uM, timepoint 0, 1.5, 3, 6, 9, 12 hours; conditions: ligilactobacillus ruminis, 5 µM
[21] = The drug is tested on Bacteroides stercoris strain: HM 1036 for biotransformation under anaerobic condition. The drug concentrations were measured over 6 timepoints collected between 0 and 12 hours of incubation by liquid-chromatography-coupled mass spectrometry (LC–MS); set-up: dose 5 uM, timepoint 0, 1.5, 3, 6, 9, 12 hours; conditions: 5 µM
[22] = as §1, with “A-08” for “T-03”; set-up: dose 5 uM, timepoint 0, 0.75, 1.5, 3, 6, 9, 12 hours; conditions: 5 µM
[23] = as §1, with “T-02” for “T-03”; set-up: dose 5 uM, timepoint 0, 0.75, 1.5, 3, 6, 9, 12 hours; conditions: 5 µM
[24] = The drug is tested on Capnocytophaga ochracea strain: DSM7271 for biotransformation under anaerobic condition. The drug concentrations were measured over 6 timepoints collected between 0 and 12 hours of incubation by liquid-chromatography-coupled mass spectrometry (LC–MS); set-up: dose 5 uM, timepoint 0, 1.5, 3, 6, 9, 12 hours; conditions: 5 µM
[25] = The drug is tested on Roseburia intestinalis strain: DSM14610 for biotransformation under anaerobic condition. The drug concentrations were measured over 6 timepoints collected between 0 and 12 hours of incubation by liquid-chromatography-coupled mass spectrometry (LC–MS); set-up: dose 5 uM, timepoint 0, 1.5, 3, 6, 9, 12 hours; conditions: 5 µM
[26] = The drug is tested on Capnocytophaga ochracea strain: DSM7271 for biotransformation under microaerobic condition. The drug concentrations were measured over 6 timepoints collected between 0 and 12 hours of incubation by liquid-chromatography-coupled mass spectrometry (LC–MS); set-up: dose 5 uM, timepoint 0, 1.5, 3, 6, 9, 12 hours; conditions: 5 µM
[27] = as §1, with “A-03” for “T-03”, “anaerobic” for “microaerobic”; set-up: dose 5 uM, timepoint 0, 0.75, 1.5, 3, 6, 9, 12 hours; conditions: 5 µM
[28] = The drug is tested on Bifidobacterium adolescentis strain: DSM20083 for biotransformation under anaerobic condition. The drug concentrations were measured over 6 timepoints collected between 0 and 12 hours of incubation by liquid-chromatography-coupled mass spectrometry (LC–MS); set-up: dose 5 uM, timepoint 0, 1.5, 3, 6, 9, 12 hours; conditions: 5 µM
[29] = The drug is tested on Lactobacillus gasseri strain: DSM20243 for biotransformation under microaerobic condition. The drug concentrations were measured over 6 timepoints collected between 0 and 12 hours of incubation by liquid-chromatography-coupled mass spectrometry (LC–MS); set-up: dose 5 uM, timepoint 0, 1.5, 3, 6, 9, 12 hours; conditions: 5 µM
[30] = The drug is tested on Actinomyces naeslundi strain: DSM43013 for biotransformation under microaerobic condition. The drug concentrations were measured over 6 timepoints collected between 0 and 12 hours of incubation by liquid-chromatography-coupled mass spectrometry (LC–MS); set-up: dose 5 uM, timepoint 0, 1.5, 3, 6, 9, 12 hours; conditions: actinomyces naeslundii, 5 µM

Bacterial Biotransformation [1]	Bacterial Biotransformation [2]	Bacterial Biotransformation [3]	Bacterial Biotransformation [4]	Bacterial Biotransformation [5]	Bacterial Biotransformation [6]	Bacterial Biotransformation [7]	Bacterial Biotransformation [8]	Bacterial Biotransformation [9]	Bacterial Biotransformation [10]	Bacterial Biotransformation [11]	Bacterial Biotransformation [12]	Bacterial Biotransformation [13]	Bacterial Biotransformation [14]	Bacterial Biotransformation [15]	Bacterial Biotransformation [16]	Bacterial Biotransformation [17]	Bacterial Biotransformation [18]	Bacterial Biotransformation [19]	Bacterial Biotransformation [20]	Compound	other results
Compound NOT metabolized	Compound NOT metabolized	Compound NOT metabolized	Compound NOT metabolized	Compound NOT metabolized	Compound NOT metabolized	Compound NOT metabolized	Compound NOT metabolized	Compound metabolized	Compound NOT metabolized	Compound metabolized	Compound NOT metabolized	Compound NOT metabolized	Compound NOT metabolized	Compound NOT metabolized	Compound metabolized	Compound metabolized	Compound NOT metabolized	Compound NOT metabolized	Compound NOT metabolized	CCCC1O[C@@H]2C[C@H]3[C@@H]4CCC5=CC(=O)C=C[C@]5(C)[C@H]4[C@@H](O)C[C@]3(C)[C@]2(C(=O)CO)O1 (stereo not given in full) [BUDESONIDE]	Bacterial Biotransformation [21]: Compound NOT metabolized; Bacterial Biotransformation [22]: Compound metabolized; Bacterial Biotransformation [23]: Compound NOT metabolized; Bacterial Biotransformation [24]: Compound NOT metabolized; Bacterial Biotransformation [25]: Compound NOT metabolized; Bacterial Biotransformation [26]: Compound NOT metabolized; Bacterial Biotransformation [27]: Compound NOT metabolized; Bacterial Biotransformation [28]: Compound NOT metabolized; Bacterial Biotransformation [29]: Compound NOT metabolized; Bacterial Biotransformation [30]: Compound NOT metabolized
Compound NOT metabolized	Compound NOT metabolized	Compound NOT metabolized	Compound NOT metabolized	Compound metabolized	Compound NOT metabolized	Compound NOT metabolized	Compound metabolized	Compound NOT metabolized	Compound NOT metabolized	Compound NOT metabolized	Compound NOT metabolized	Compound NOT metabolized	Compound NOT metabolized	Compound NOT metabolized	Compound NOT metabolized	Compound NOT metabolized	Compound NOT metabolized	Compound metabolized	Compound NOT metabolized	CCC(C)(C)C(=O)O[C@H]1C[C@@H](C)C=C2C=C[C@H](C)[C@H](CC[C@@H]3C[C@@H](O)CC(=O)O3)[C@H]21 [SIMVASTATIN]	Bacterial Biotransformation [21]: Compound NOT metabolized; Bacterial Biotransformation [22]: Compound NOT metabolized; Bacterial Biotransformation [23]: Compound NOT metabolized; Bacterial Biotransformation [24]: Compound NOT metabolized; Bacterial Biotransformation [25]: Compound NOT metabolized; Bacterial Biotransformation [26]: Compound NOT metabolized; Bacterial Biotransformation [27]: Compound NOT metabolized; Bacterial Biotransformation [28]: Compound NOT metabolized; Bacterial Biotransformation [29]: Compound NOT metabolized; Bacterial Biotransformation [30]: Compound NOT metabolized
Compound metabolized	Compound metabolized	Compound metabolized	Compound NOT metabolized	Compound metabolized	Compound metabolized	Compound metabolized	Compound metabolized	Compound metabolized	Compound metabolized	Compound metabolized	Compound metabolized	Compound metabolized	Compound metabolized	Compound NOT metabolized	Compound metabolized	Compound metabolized	Compound metabolized	Compound NOT metabolized	Compound metabolized	COc1c(C)c2c(c(O)c1C/C=C(\C)CCC(=O)OCCN1CCOCC1)C(=O)OC2 [MYCOPHENOLATE MOFETIL]	Bacterial Biotransformation [21]: Compound metabolized; Bacterial Biotransformation [22]: Compound metabolized; Bacterial Biotransformation [23]: Compound metabolized; Bacterial Biotransformation [24]: Compound NOT metabolized; Bacterial Biotransformation [25]: Compound NOT metabolized; Bacterial Biotransformation [26]: Compound metabolized; Bacterial Biotransformation [27]: Compound metabolized; Bacterial Biotransformation [28]: Compound NOT metabolized; Bacterial Biotransformation [29]: Compound NOT metabolized; Bacterial Biotransformation [30]: Compound NOT metabolized
